For test [1], the target named is PI3Kδ (p110δ/p85α) Recombinant Human Protein (Homo sapiens (Human), UniProt O00329). Put plainly: PI3Kδ Scintillation Proximity Assay. The class given is biochemical. The settings on record: read-out: PI3K-delta SPA IC50. From the text: Example C. PI3Kδ Scintillation Proximity Assay
[γ-^33P]ATP (10 mCi/mL) and Wheat Germ Agglutinin (WGA) YSi SPA Scintillation Beads was purchased from Perkin-Elmer (Waltham, Mass.). Lipid kinase substrate, D-myo-Phosphatidylinositol 4,5-bisphosphate (PtdIns(4,5)P2)D (+)-sn-1,2-di-O-octanoylglyceryl, 3-O-phospho linked (PIP2), CAS 204858-53-7, was purchased from Echelon Biosciences (Salt Lake City, Utah). PI3Kδ (p110δ/p85α) Recombinant Human Protein was purchased from Eurofins (St Charles, Mo.). ATP, MgCl2, DTT, EDTA, MOPS and CHAPS were purchased from Sigma-Aldrich (St. Louis, Mo.).
(§1) The kinase reaction was conducted in polystyrene 384-well Greiner Bio-one white plate from Thermo Fisher Scientific in a final volume of 25 μL. Inhibitors were first diluted serially in DMSO and added to the plate wells before the addition of other reaction components. The final concentration of DMSO in the assay was 2%. The PI3Kδ assay was carried out at room temperature in 20 mM MOPS, pH 6.7, 10 mM MgCl2, 5 mM DTT and CHAPS 0.03%. Reactions were initiated by the addition of ATP, the final reaction mixture consisted of 20 μM PIP2, 2 μM ATP, 0.5 μCi [γ-^33P] ATP, 3.4 nM PI3Kδ. Reactions were incubated for 120 min and terminated by the addition of 40 μL SPA beads suspended in quench buffer: 163 mM potassium phosphate pH 7.8, 20% glycerol, 25 mM EDTA. The final concentration of SPA beads is 1.0 mg/mL. After the plate sealing, plates were shaken overnight at room temperature and centrifuged at 1500 rpm for 10 min, the radioactivity of the product was determined by scintillation counting on Topcount (Perkin-Elmer). IC50 determination was performed by fitting the curve of percent of the solvent control activity versus the log of the inhibitor concentration using the GraphPad Prism 6.0 software.

Test [2] deals with PI3Kγ (p110γ) Recombinant Human Protein (Homo sapiens (Human), UniProt P48736). As to the kind of experiment: PI3K-γ Scintillation Proximity Assay. It is filed as biochemical. The note with it: read-out: PI3K-gamma SPA IC50.
Chain of PI3Kγ (p110γ) Recombinant Human Protein (P48736 whole entry): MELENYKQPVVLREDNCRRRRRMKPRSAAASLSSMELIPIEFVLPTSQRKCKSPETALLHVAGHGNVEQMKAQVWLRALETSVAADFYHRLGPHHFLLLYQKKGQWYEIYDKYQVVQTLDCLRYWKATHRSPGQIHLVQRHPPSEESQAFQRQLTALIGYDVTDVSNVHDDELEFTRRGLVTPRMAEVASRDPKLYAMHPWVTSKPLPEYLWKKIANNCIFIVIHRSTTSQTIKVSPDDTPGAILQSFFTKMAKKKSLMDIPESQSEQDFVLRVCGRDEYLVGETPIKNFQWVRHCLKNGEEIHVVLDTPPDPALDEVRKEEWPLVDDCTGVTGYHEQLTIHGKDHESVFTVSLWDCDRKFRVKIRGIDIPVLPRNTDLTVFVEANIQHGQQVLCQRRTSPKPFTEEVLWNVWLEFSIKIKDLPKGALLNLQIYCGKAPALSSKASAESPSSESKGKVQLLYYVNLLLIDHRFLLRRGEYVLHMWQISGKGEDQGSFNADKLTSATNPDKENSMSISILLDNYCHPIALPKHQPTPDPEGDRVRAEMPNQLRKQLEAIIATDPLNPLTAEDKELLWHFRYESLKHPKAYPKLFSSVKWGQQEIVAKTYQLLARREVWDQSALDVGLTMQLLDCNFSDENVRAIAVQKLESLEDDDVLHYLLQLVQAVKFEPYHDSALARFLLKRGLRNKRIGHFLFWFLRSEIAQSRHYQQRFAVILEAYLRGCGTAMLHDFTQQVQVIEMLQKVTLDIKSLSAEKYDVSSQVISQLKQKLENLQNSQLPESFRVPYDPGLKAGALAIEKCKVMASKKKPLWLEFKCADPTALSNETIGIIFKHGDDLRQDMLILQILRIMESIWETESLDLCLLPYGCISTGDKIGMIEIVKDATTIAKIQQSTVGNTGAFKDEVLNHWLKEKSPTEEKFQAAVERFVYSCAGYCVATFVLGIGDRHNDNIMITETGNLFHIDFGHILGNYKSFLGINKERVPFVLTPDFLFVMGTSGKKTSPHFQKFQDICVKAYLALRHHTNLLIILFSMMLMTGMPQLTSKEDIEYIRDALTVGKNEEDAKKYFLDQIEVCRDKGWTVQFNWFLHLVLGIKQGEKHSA
From the text: Example B. PI3K-γ Scintillation Proximity Assay
[γ-^33P]ATP (10 mCi/mL) and Wheat Germ Agglutinin (WGA) YSi SPA Scintillation Beads was purchased from Perkin-Elmer (Waltham, Mass.). Lipid kinase substrate, D-myo-Phosphatidylinositol 4,5-bisphosphate (PtdIns(4,5)P2)D (+)-sn-1,2-di-O-octanoylglyceryl, 3-O-phospho linked (PIP2), CAS 204858-53-7, was purchased from Echelon Biosciences (Salt Lake City, Utah). PI3Kγ (p110γ) Recombinant Human Protein was purchased from Life technology (Grand Island, N.Y.). ATP, MgCl2, DTT, EDTA, MOPS and CHAPS were purchased from Sigma-Aldrich (St. Louis, Mo.).
as §1, with “PI3Kγ” for “PI3Kδ”, “13” for “3.4”, “PI3Kγ.” for “PI3Kδ.”

Structures are written as SMILES. Counter-ions that a name gives are not always drawn.

Chain of PI3Kδ (p110δ/p85α) Recombinant Human Protein (O00329 whole entry): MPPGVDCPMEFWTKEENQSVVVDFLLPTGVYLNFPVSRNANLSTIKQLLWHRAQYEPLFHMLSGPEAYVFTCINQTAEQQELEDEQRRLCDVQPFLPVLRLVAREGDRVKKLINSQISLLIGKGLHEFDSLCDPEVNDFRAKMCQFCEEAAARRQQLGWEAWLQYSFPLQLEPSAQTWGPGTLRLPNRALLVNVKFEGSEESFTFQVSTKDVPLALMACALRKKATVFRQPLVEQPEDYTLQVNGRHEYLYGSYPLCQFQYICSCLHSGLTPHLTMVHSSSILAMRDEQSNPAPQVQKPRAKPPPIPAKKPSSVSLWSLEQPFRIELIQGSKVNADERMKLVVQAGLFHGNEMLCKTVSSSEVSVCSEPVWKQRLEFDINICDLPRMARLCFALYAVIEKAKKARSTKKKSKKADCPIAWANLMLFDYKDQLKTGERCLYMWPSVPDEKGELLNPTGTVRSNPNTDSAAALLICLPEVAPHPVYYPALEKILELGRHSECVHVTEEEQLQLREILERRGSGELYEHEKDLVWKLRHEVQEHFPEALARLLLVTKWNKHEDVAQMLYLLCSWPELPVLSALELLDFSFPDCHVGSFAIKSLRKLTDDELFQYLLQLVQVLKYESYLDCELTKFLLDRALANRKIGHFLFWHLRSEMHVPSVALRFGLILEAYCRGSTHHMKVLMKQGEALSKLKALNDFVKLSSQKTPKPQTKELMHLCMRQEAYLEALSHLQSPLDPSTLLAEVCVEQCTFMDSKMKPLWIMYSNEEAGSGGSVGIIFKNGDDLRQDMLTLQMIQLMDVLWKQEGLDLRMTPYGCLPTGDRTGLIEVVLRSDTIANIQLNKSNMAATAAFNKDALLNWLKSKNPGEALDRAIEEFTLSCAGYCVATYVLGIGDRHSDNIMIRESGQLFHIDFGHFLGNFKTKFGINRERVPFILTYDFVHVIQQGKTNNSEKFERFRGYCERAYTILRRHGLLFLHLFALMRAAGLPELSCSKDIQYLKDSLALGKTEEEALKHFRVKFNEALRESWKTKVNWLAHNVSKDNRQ
Chain of PI3Kδ (p110δ/p85α) Recombinant Human Protein (P27986 whole entry partner): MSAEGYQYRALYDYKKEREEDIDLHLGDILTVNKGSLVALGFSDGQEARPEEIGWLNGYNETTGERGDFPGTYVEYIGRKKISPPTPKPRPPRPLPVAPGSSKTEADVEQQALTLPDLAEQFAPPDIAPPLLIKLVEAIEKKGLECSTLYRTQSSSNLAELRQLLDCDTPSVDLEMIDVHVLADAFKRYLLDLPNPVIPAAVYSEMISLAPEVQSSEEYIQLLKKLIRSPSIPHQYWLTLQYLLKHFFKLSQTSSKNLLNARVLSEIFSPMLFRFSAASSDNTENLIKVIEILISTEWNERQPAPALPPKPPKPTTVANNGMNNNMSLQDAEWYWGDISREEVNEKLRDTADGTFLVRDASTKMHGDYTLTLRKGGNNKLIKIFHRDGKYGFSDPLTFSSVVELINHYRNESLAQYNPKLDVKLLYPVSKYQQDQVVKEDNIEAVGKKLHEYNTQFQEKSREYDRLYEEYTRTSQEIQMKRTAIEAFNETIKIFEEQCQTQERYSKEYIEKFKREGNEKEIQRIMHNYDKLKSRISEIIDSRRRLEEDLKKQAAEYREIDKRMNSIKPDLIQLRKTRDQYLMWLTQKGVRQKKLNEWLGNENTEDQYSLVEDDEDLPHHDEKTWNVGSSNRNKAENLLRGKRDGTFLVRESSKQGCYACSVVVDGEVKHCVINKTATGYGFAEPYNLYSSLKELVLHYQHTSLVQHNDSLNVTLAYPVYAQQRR

`CCNC(=O)Nc1cncc(-c2ccnc(-c3ncc(-c4ccccc4)[nH]3)c2)c1` [Example 139, N-Ethyl-N′-[2′-(5-phenyl-1H-imidazol-2-yl)-3,4′-bipyridin-5-yl]urea Trifluoroacetate Salt]: the IC50 in test [1] is not above 100 nM; in test [2] it was not above 500 nM.
The like results for `Cc1[nH]c(-c2cc(-c3cncc(N4CCOCC4)c3)ccn2)nc1CNC1CCCC1` [Example 284, N-{[5-Methyl-2-(5-morpholin-4-yl-3,4′-bipyridin-2′-yl)-1H-imidazol-4-yl]methyl}cyclopentanamine] were, in that order, not above 100 nM and more than 500 nM.
On the same counts, the results for `N#CCCn1cc(-c2ccnc(-c3ncc(-c4ccccc4)[nH]3)c2)cn1` [Example 52, 3-(4-(2-(5-Phenyl-1H-imidazol-2-yl)pyridin-4-yl)-1H-pyrazol-1-yl)propanenitrile trifluoroacetate salt] are not above 500 nM and more than 500 nM.
For `Cc1nc(-c2cc(-c3cncc(C(=O)N[C@@H](C)c4ccccc4)c3)ccn2)[nH]c1C` [Example 195, 2′-(4,5-Dimethyl-1H-imidazol-2-yl)-N-[(1S)-1-phenylethyl]-3,4′-bipyridine-5-carboxamide trifluoroacetate salt], the IC50 in test [1] and in test [2] was not above 500 nM throughout.
`CCOC(=O)Nc1cncc(-c2ccnc(-c3ncc(-c4ccccc4)[nH]3)c2)c1` [Example 140, Ethyl 2′-(5-phenyl-1H-imidazol-2-yl)-3,4′-bipyridin-5-ylcarbamate Trifluoroacetate Salt]: the values for the IC50 in test [1] and in test [2] were not above 50 nM and not above 100 nM, respectively.
On the same counts, the results for `O=C(O)c1ccc(Cn2cc(-c3ccnc(-c4ncc(-c5ccccc5)[nH]4)c3)cn2)cc1` [Example 35, 4-((4-(2-(5-Phenyl-1H-imidazol-2-yl)pyridin-4-yl)-1H-pyrazol-1-yl)methyl)benzoic acid trifluoroacetate salt] are not above 500 nM and not above 500 nM.
With `COc1cncc(-c2ccnc(-c3cnc(NCC(C)C)[nH]3)c2)c1` [Example 64, N-Isobutyl-5-(5-methoxy-3,4′-bipyridin-2′-yl)-1H-imidazol-2-amine trifluoroacetate salt], the IC50 is more than 500 nM in test [1] and not above 500 nM in test [2].
The like results for `Clc1cccc(Cn2cc(-c3ccnc(-c4ncc(-c5ccccc5)[nH]4)c3)cn2)c1` [Example 21, 4-(1-(3-Chlorobenzyl)-1H-pyrazol-4-yl)-2-(5-phenyl-1H-imidazol-2-yl)pyridine trifluoroacetate salt] were, in that order, more than 500 nM and not above 500 nM.
The like results for `Cc1nc(-c2cc(C3CCCN(S(=O)(=O)c4ccccc4)C3)ccn2)[nH]c1C` (racemic) [Example 215, 2-(4,5-Dimethyl-1H-imidazol-2-yl)-4-[1-(phenylsulfonyl)piperidin-3-yl]pyridine Trifluoroacetate Salt] were, in that order, more than 500 nM and not above 500 nM.
Consider `N#Cc1ccc(C(=O)Nc2cncc(-c3ccnc(-c4ncc(-c5ccccc5)[nH]4)c3)c2)cc1` [Example 137, 4-Cyano-N-(2′-(5-phenyl-1H-imidazol-2-yl)-3,4′-bipyridin-5-yl)benzamide], for which the IC50 in test [1] and in test [2] was not above 500 nM throughout.
As for `Cc1nc(-c2cc(C3=CCCN(CC4CCOCC4)C3)ccn2)[nH]c1C` [Example 225, 2-(4,5-Dimethyl-1H-imidazol-2-yl)-4-(1-((tetrahydro-2H-pyran-4-yl)methyl)-1,2,5,6-tetrahydropyridin-3-yl)pyridine trifluoroacetate salt], the IC50 in test [1] and in test [2] was more than 500 nM in each case.
With `Cc1nc(-c2cc(-c3cncc(C(=O)N4CCC(Cc5ccccc5)CC4)c3)ccn2)[nH]c1C` [Example 189, 5-[(4-Benzylpiperidin-1-yl)carbonyl]-2′-(4,5-dimethyl-1H-imidazol-2-yl)-3,4′-bipyridine trifluoroacetate salt], the IC50 was not above 50 nM in test [1] and not above 100 nM in test [2].
On the same counts, the results for `O=C(O)c1ccccc1Cn1cc(-c2ccnc(-c3ncc(-c4ccccc4)[nH]3)c2)cn1` [Example 33, 2-((4-(2-(5-Phenyl-1H-imidazol-2-yl)pyridin-4-yl)-1H-pyrazol-1-yl)methyl)benzoic acid trifluoroacetate salt] are not above 500 nM and more than 500 nM.
On the same counts, the results for `CNC(=O)CCn1cc(-c2ccnc(-c3ncc(-c4ccccc4)[nH]3)c2)cn1` [Example 58, N-Methyl-3-(4-(2-(5-phenyl-1H-imidazol-2-yl)pyridin-4-yl)-1H-pyrazol-1-yl)propanamide trifluoroacetate salt] are more than 500 nM and more than 500 nM.
On to `CN1CCC(Nc2cncc(-c3ccnc(-c4ncc(-c5ccccc5)[nH]4)c3)c2)CC1` [Example 143, N-(1-Methylpiperidin-4-yl)-2′-(5-phenyl-1H-imidazol-2-yl)-3,4′-bipyridin-5-amine trifluoroacetate salt], for which the IC50 in test [1] and in test [2] was not above 100 nM in each case.
For `Cc1n[nH]c(C)c1-c1ccnc(-c2ncc(-c3ccccc3)[nH]2)c1` [Example 11, 4-(3,5-Dimethyl-1H-pyrazol-4-yl)-2-(5-phenyl-1H-imidazol-2-yl)pyridine trifluoroacetate salt], the IC50 in test [1] and in test [2] was more than 500 nM each time.
`Cc1nc(-c2cc(C3=CCN(S(C)(=O)=O)C3)ccn2)[nH]c1C` [Example 227, 2-(4,5-Dimethyl-1H-imidazol-2-yl)-4-(1-(methylsulfonyl)-2,5-dihydro-1H-pyrrol-3-yl)pyridine trifluoroacetate salt]: the IC50 in test [1] and in test [2] was more than 500 nM throughout.
As for `CCN(C)C(=O)c1nc(-c2cc(-c3cncc(N4CCOCC4)c3)ccn2)[nH]c1C` [Example 260, N-Ethyl-N,5-dimethyl-2-(5-morpholin-4-yl-3,4′-bipyridin-2′-yl)-1H-imidazole-4-carboxamide], the IC50 in test [1] and in test [2] was not above 500 nM in each case.
`Cc1nc(-c2cc(-c3cncc(C(=O)N4CCC(O)(Cc5ccccc5)CC4)c3)ccn2)[nH]c1C` [Example 196, 4-Benzyl-1-{[2′-(4,5-dimethyl-1H-imidazol-2-yl)-3,4′-bipyridin-5-yl]carbonyl}piperidin-4-ol trifluoroacetate salt]: the IC50 in test [1] is not above 50 nM; in test [2] it was not above 500 nM.
The like results for `c1ccc(-c2cnc(-c3cc(-c4cnn(C5CCOC5)c4)ccn3)[nH]2)cc1` (racemic) [Example 60, 2-(5-Phenyl-1H-imidazol-2-yl)-4-(1-(tetrahydrofuran-3-yl)-1H-pyrazol-4-yl)pyridine trifluoroacetate salt] were, in that order, not above 500 nM and not above 500 nM.
On the same counts, the results for `CC(=O)N1CCC(c2c[nH]c(-c3cc(-c4cnn(Cc5ccc(Cl)cc5)c4)ccn3)n2)C1` (centres unmarked) [Example 301, 2-[4-(1-Acetylpyrrolidin-3-yl)-1H-imidazol-2-yl]-4-[1-(4-chlorobenzyl)-1H-pyrazol-4-yl]pyridine trifluoroacetate salt] are more than 500 nM and not above 500 nM.
The like results for `Cc1nc(-c2cc(-c3cncc(C(=O)N4CCC(c5ccccn5)C4)c3)ccn2)[nH]c1C` (racemic) [Example 170, (2′-(4,5-Dimethyl-1H-imidazol-2-yl)-3,4′-bipyridin-5-yl)(3-(pyridin-2-yl)pyrrolidin-1-yl)methanone trifluoroacetate salt] were, in that order, not above 50 nM and not above 100 nM.
